These results are taken from patent publication US20120309705A1, “NOVEL 3'-DEOXY-3'-METHYLIDENE-BETA-L-NUCLEOSIDES” (priority 2009, published 2012).

The nature of data set [1]: Cytotoxicity in MT-4 cells (MTS). The format is cell-based. The following applies: human. As for the experimental part:
MT-4 cells was added to 96-well microtiter plates in a volume of 50 μl (1×10^5 cells/mL). The cell medium contains the test compounds with the concentrations ranging 0.01 μM-31 μM. The cells were incubated at 37° C. with 5% CO2. At assay termination (6 days), 20-25 μL of MTS reagent is added per well and the microtiter plates are then incubated for 4-6 hrs at 37° C. with 5% CO2. The plate was read spectrophotometrically to assess cell viability. The cytotoxicity was calculated based on the cell viability in comparison with the control.

Data set [2] in a line: Cytotoxicity in HepG2 cells (MTT). The data set is classed as cell-based. The following applies: human. As for the experimental part: HepG2 cells were seeded on 96-well plates at a density of 1×10^4 cells/well in 100 μl DMEM supplemented with 10% FBS, 100 U/ml penicillin/streptomycin and 2 mM L-glutamine. After 20 hours of incubation at 37° C. with 5% CO2, the medium was removed and replaced with fresh medium containing test compounds with the concentrations ranging 4.7-300 μM. The cells were incubated for 24 hours at 37° C. with 5% CO2. The medium was removed and replaced with 100 μl/well MTT (Sigma) in HBSS (0.5 mg/ml). After the incubation for 2 hours on gentle shake at 37° C., 100 μl/well of MTT lysis buffer was added to the wells and plates were covered and left over night to dissolve formazan crystals. Absorbance was measured at 570-630 nm in ELISA reader. The cytotoxicity was calculated based on the cell viability in comparison with the control.

The test system of data set [3] is HIV-1IIIB. Nature of the data set: Anti-HIV activity in MT-4 cells (cytopathic effect reduction). The data set is classed as cell-based. The following applies: Human immunodeficiency virus 1, MT4, 144 h, 6 days post-infection. Here is the method:
MT-4 cells were used for analyzing compounds of the invention for their HIV inhibitory activities. On the day preceding the assay, the cells were split 1:2 to assure they were in an exponential growth phase at the time of infection. Total cell number and percent viability determinations were performed using a hemacytometer and trypan blue exclusion. Cell viability must be greater than 95% for the cells to be utilized in the assay. The cells were re-suspended at 1×10^5 cells/mL in tissue culture medium and added to control or drug-containing 96-well microtiter plates in a volume of 50 μL. The viruses used for this assay were HIV-1IIIB. For each assay, a pre-titered aliquot of virus was removed from the freezer (−80° C.) and allowed to thaw slowly to room temperature in a biological safety cabinet. The virus was re-suspended and diluted into tissue culture medium such that the amount of virus added to each well in a volume of 50 μL was the amount determined to give between 85 to 95% cell killing at 6 days post-infection. The multiplicity of infection of these assays was approximately 0.01 and the volume added to the well of the microtiter plates was 50 μL. At assay termination (6 days post-infection), 20-25 μL of MTS reagent 3-(4,5-dimethylthiazol-2-yl)-5-(3-carboxymethoxyphenyl)-2-(4-sulfophenyl)-2H-tetrazolium (MTS; CellTiter 96 Reagent, Promega) was added per well and the microtiter plates were incubated for 4-6 hrs at 37° C., 5% CO2. Adhesive plate sealers were used in place of the lids, the sealed plate is inverted several times to mix the soluble formazan product. The plate was read spectrophotometrically at 490/650 nm with plate reader. Anti-HIV activity was calculated based on the Cytopathic Effect Reduction (%).

Data set [4] has as its system HBV. The data set can be described thus: Anti-HBV activity in HepG2.2.15 cells (HBV DNA, TaqMan PCR). The data set is classed as cell-based. The note with it: Hepatitis B virus, 144 h, 6 days, HBV DNA in supernatant, read-out: Anti-HBV activity IC50 (HepG 2215). As for the experimental part:
Human hepatoma cells with HBV (HepG2.2.15 cells) were used for the analyzing compounds of the invention for their HBV inhibitory activities. HepG2.2.15 cells were plated in 96-well microtiter plates. Only the interior wells were utilized to reduce “edge effects” observed during cell culture; the exterior wells were filled with complete medium to help minimize sample evaporation. After 16-24 hours the confluent monolayer of HepG2.2.15 cells were washed and the medium was replaced with complete medium containing various concentrations of a test compound in triplicate (compounds tested at 6 concentrations). Lamivudine was used as the positive control, while media alone was added to cells as a negative control. Three days later the culture medium was replaced with fresh medium containing the appropriately diluted drug. Six days following the initial administration of the test compound, the cell culture supernatant was collected, treated with pronase and then used in a real-time quantitative TaqMan PCR assay. The PCR-amplified HBV DNA was detected in real-time by monitoring increases in fluorescence signals that result from the exonucleolytic degradation of a quenched fluorescent probe molecule that hybridized to the amplified HBV DNA. For each PCR amplification, a standard curve was simultaneously generated using dilutions of purified HBV DNA. Anti-HBV activity was calculated from the reduction in HBV DNA levels. CellTiter-96 kit (Promega) is employed to measure cell viability in the same assay to confirm that the inhibition was not due to cytotoxicity in HepG 2 cells.

The test system of data set [5] is mutants resistant to lamivudine. The following applies: cited from earlier work.
Data set [6] addresses mutation rtA181V (Hepatitis B virus genotype D subtype ayw, UniProt P03156, A516V). The note with it: cited from earlier work.
In data set [7] the target is rtN236T in HBV polymerase (Hepatitis B virus genotype D subtype ayw, UniProt P03156, N571T). The note with it: cited from earlier work.
rtN236T in HBV polymerase, sequence (P03156 whole entry N571T): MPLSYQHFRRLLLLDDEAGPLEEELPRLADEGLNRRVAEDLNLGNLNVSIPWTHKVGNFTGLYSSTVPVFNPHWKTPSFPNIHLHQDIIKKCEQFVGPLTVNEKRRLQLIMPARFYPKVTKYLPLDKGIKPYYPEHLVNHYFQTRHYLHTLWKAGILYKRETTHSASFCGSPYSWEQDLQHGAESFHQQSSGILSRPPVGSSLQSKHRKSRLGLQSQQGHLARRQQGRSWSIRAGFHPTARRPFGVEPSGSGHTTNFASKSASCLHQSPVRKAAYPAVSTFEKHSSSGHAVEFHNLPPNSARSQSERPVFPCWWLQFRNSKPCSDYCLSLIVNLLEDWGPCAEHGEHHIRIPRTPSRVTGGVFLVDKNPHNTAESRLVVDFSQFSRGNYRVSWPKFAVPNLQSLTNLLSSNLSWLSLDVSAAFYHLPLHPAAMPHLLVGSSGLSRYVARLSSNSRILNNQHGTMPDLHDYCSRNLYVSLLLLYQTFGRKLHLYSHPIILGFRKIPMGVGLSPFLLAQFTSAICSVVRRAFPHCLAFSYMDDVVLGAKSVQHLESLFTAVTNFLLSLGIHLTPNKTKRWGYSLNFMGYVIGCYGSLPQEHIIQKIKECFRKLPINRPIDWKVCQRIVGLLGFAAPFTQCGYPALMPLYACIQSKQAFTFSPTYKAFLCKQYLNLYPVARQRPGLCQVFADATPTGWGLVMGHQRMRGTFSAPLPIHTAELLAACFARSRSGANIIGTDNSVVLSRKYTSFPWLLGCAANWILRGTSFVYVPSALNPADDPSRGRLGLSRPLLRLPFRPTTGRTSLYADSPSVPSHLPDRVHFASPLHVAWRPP

mutation rtA181V, sequence (P03156 whole entry A516V): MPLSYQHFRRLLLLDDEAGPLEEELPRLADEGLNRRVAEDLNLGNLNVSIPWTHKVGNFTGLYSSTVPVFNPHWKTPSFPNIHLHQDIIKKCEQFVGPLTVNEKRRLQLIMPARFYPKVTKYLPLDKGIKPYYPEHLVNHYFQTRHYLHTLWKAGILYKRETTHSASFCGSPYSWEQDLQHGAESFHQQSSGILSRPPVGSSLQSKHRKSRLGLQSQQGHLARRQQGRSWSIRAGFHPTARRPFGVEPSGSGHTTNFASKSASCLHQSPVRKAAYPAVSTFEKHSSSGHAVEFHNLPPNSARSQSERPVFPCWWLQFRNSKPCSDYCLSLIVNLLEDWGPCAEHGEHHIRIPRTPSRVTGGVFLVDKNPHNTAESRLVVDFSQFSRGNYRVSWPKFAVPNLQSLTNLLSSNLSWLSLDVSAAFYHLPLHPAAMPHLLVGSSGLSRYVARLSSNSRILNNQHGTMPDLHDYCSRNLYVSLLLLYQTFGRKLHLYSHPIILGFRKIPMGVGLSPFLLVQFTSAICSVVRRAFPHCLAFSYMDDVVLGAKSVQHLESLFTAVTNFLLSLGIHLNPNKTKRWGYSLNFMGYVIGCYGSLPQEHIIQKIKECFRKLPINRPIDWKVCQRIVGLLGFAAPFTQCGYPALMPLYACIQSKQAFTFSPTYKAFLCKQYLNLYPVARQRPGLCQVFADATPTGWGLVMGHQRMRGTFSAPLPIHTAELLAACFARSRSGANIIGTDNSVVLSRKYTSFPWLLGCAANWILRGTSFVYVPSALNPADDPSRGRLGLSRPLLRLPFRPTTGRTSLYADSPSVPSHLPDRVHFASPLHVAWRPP

Compound `C=C1[C@H](CO)O[C@H](n2ccc(N)nc2=O)[C@H]1O` [Compound 17, 1-(3-deoxy-3-methylidene-β-L-pentoribofuranosyl)cytosine] returned a CC50 at 6 days in data set [1] of more than 32 µM. For the same compound, the CC50 at 24 h in data set [2] is more than 300 µM. Besides, in data set [3], the IC50 was more than 32 µM.

Regarding `C=C1C[C@@H](n2cc(F)c(N)nc2=O)O[C@H]1CO` [Compound 66, 1-(2,3-dideoxyl-3-methylidene-β-L-pentofuranosyl)-5-fluorocytosine], the 50% cytotoxic concentration (CC50) at 24 h in data set [2] was more than 300 µM. The IC50 in data set [4] was less than 1 µM.

On to `C=C1[C@H](CO)[C@@H](O)C[C@@H]1n1cnc2c(=O)[nH]c(N)nc21` [entecavir], for which, in data set [5], the “cross-resistance of lamivudine-resistant mutants” value is listed as “cross-resistance”.

Consider `C=C1[C@H](CO)O[C@H](n2ccc(N)nc2=O)[C@@H]1F` [Compound 47, 1-[2-deoxy-2-(R)-fluoro-3-deoxy-3-methylidene-β-L-pentofuranosyl]cytosine], for which the CC50 at 6 days in data set [1] is more than 32 µM. Besides, the half-maximal cytotoxic concentration (CC50) at 24 h in data set [2] was more than 300 µM. The half-inhibitory concentration (IC50) in data set [3] is more than 32 µM.

The compound `C=C1C[C@@H](n2cnc3c(N)ncnc32)O[C@H]1CO` [Compound 71, 9-(2,3-dideoxyl-3-methylidene-β-L-pentofuranosyl)adenine] came in with a CC50 at 24 h in data set [2] of more than 300 µM. Besides, the IC50 in data set [4] was less than 1 µM.

Take `C=C1[C@H](CO)O[C@H](n2ccc(N)nc2=O)[C@H]1C` [Compound 57, 4-Amino-1-[(2S,3S,5R)-5-(hydroxymethyl)-3-methyl-4-methylenetetrahydrofuran-2-yl]pyrimidin-2(1H)-one]: in data set [2], the CC50 at 24 h is more than 300 µM.

`C=C1C[C@@H](n2ccc(=O)[nH]c2=O)O[C@H]1CO` [Compound 8, 1-(2,3-dideoxyl-3-methylidene-β-L-pentofuranosyl)uracil] had a cytotoxic concentration (CC50) at 6 days in data set [1] of more than 32 µM. The compound also registered a CC50 at 24 h in data set [2] of more than 32 µM. For the same compound, the concentration for half-maximal inhibition (IC50) in data set [3] and in data set [4] was more than 32 µM in each case.

As for `C=C1C[C@@H](n2cnc3c(=O)[nH]c(N)nc32)O[C@H]1CO` [Compound 75, 9-(2,3-dideoxyl-3-methylidene-β-L-pentofuranosyl)guanine], in data set [1], the CC50 at 6 days was more than 32 µM. Moreover, in data set [3], the IC50 is more than 32 µM.

In data set [1], `C=C1[C@H](CO)O[C@H](n2ccc(N)nc2=O)[C@H]1F` [Compound 37, 1-[2-deoxy-2-(S)-fluoro-3-deoxy-3-methylidene-β-L-pentofuranosyl]cytosine] gave a CC50 at 6 days of more than 32 µM. This compound yielded a cytotoxic concentration (CC50) at 24 h in data set [2] of more than 300 µM. In data set [3], this compound displayed a concentration for half-maximal inhibition (IC50) of more than 32 µM.

As for `C=C1[C@H](CO)O[C@H](n2ccc(N)nc2=O)[C@@H]1O` [Compound 28, 1-(3-deoxy-3-methylidene-β-L-arabinopentofuranosyl)cytosine], the 50% cytotoxic concentration (CC50) at 6 days in data set [1] is more than 32 µM. Moreover, in data set [2], the half-maximal cytotoxic concentration (CC50) at 24 h was more than 300 µM. The IC50 in data set [3] is more than 32 µM.

With `Cc1cn([C@@H]2C[C@@H](O)[C@H](CO)O2)c(=O)[nH]c1=O` [telbivudine], in data set [5], the “cross-resistance of lamivudine-resistant mutants” value is listed as “cross-resistance”.

Turning to `Nc1ncnc2c1ncn2CCOCP(=O)(O)O` [adefovir], in data set [6], the activity loss entry is recorded as “about 33 fold”. In addition, the loss of susceptibility result in data set [7] was “about 10 fold”.

In data set [1], `C=C1C[C@@H](n2cc(C)c(=O)[nH]c2=O)O[C@H]1CO` [Compound 26, 1-(2,3-dideoxy-3-methylidene-β-L-pentofuranosyl)thymine] registered a CC50 at 6 days of more than 32 µM. This compound also had a cytotoxic concentration (CC50) at 24 h in data set [2] of more than 300 µM. The values for the IC50 in data set [3] and in data set [4] were more than 32 µM and less than 1 µM, respectively.

As to `C=C1C[C@@H](n2ccc(N)nc2=O)O[C@H]1CO` [Compound 10, 1-(2,3-dideoxyl-3-methylidene-β-L-pentofuranosyl)cytosine], in data set [1], the CC50 at 6 days is more than 32 µM. This compound also showed a CC50 at 24 h in data set [2] of more than 300 µM. Also, the IC50 is 1 to 32 µM in data set [3] and less than 1 µM in data set [4].
